From patent publication US4923813A, “Monoclonal antibody-based immunoassay for cyclic DNA adducts resulting from exposure to crotonaldehyde or acrolein” (American Health Foundation, priority 1988, dated 1990)

Legend:
monoclonal antibody CA1 = assay: competitive ELISA, inhibition of binding of antibody CA1 to structure 1a,b-KLH conjugate; parameters: species or system mouse; conditions: for pmol of compound needed for 50% inhibition of binding in the competitive ELISA, CA1: plate coated with structure 1a,b-KLH conjugate
From the text: (§1) Screening for Antibody Production. In order to screen the fused cells for the production of antibody specific for the cyclic deoxyguanosine adducts, an enzyme-linked immunosorbent assay ("ELISA") may be used. ELISA links soluble antigens to insoluble antibodies or soluble antibodies to solid phase antigens in a manner that allows both immunolgical and enzymatic activity to be retained.
(§2) ELISA techniques for antigen or antibody quantification are well-known to the art. By way of example, wells of a 96-well polystyrene ELISA plate may be coated with 10 ng of structure a, b-KLH conjugate, diluted in Phosphate buffered saline (PBS), for 1 h at room temperature. The wells may be washed twice with PBS containing 0.1% Tween 20 and twice with distilled H2 O. From this point all reagents may be diluted in PBS containing 0.1% bovine serum albumin ("BSA"). Wells are filled with 50 μl of PBS-BSA followed by 50 μl of culture supernatant and incubated at room temperature for 1 h. For competitive ELISA, adduct standards or test samples are mixed with the monoclonal antibody and added to the well. The wells are washed and 100 μl of alkaline phosphatase-labeled goat anti-mouse 1 gG antibody (Kirkegaard & Perry Laboratories, Inc., Gaithersburg, Md.) are added to each well and incubated at room temperature for 1 h. After washing, 100 μl of substrate solution (1 mg/ml of p-nitrophenylphosphate in 1M diethanolamine buffer, pH 9.8) are added to each well and incubated at room temperature for 30 min. […] In quantitative experiments the concentration of unknown samples may be determined by comparison to a standard curve relating the log of the inhibitor concentration to the logit of the percentage of inhibition [formula]
(§3) Using the above-identified procedures, a single mouse was boosted with the structure 1a,b-KLH conjugate for 4 consecutive days and the fusion was performed on the fifth day.

monoclonal antibody CA2 = assay: competitive ELISA, inhibition of binding of antibody CA2 to structure 1a,b-KLH conjugate; parameters: species or system mouse; conditions: for pmol of compound needed for 50% inhibition of binding in the competitive ELISA, CA2: plate coated with structure 1a,b-KLH conjugate
From the text: as §1, §2, §3

monoclonal antibody CA3 = assay: competitive ELISA, inhibition of binding of antibody CA3 to structure 1a,b-KLH conjugate; parameters: species or system mouse; conditions: for pmol of compound needed for 50% inhibition of binding in the competitive ELISA, CA3: plate coated with structure 1a,b-KLH conjugate
From the text: as §1, §2, §3

monoclonal antibody CA4 = assay: competitive ELISA, inhibition of binding of antibody CA4 to structure 1a,b-KLH conjugate; parameters: species or system mouse; conditions: plate coated with structure 1a,b-KLH conjugate
From the text: as §1, §2, §3

[1] = system: the four antibodies (CA1, CA2, CA3, CA4); assay: competitive ELISA, reactivity of the four antibodies; assay type: binding, mouse; conditions: all four antibodies; O6-methyldeoxyguanosine: with the exception of CA3
From the text: as §1, §2, §3

## O=c1c2ncn([C@H]3C[C@H](O)[C@@H](CO)O3)c2nc2n1C(O)C(O)N2 (stereo partly drawn) [1e]
Monoclonal antibody CA1
  pmol of compound needed for 50% inhibition of binding in the competitive ELISA, CA1: 113 pmol
Monoclonal antibody CA2
  pmol of compound needed for 50% inhibition of binding in the competitive ELISA, CA2: 156 pmol
Monoclonal antibody CA3
  pmol of compound needed for 50% inhibition of binding in the competitive ELISA, CA3: 22 pmol
Monoclonal antibody CA4
  pmol of compound needed for 50% inhibition of binding in the competitive ELISA, CA4: 41,470 pmol
[1]
  reactivity / cross-reactivity with the four antibodies: Cross-reactivity

## O=c1c2ncn([C@H]3C[C@H](O)[C@@H](CO)O3)c2nc2n1CCC(O)N2 (stereo partly drawn) [1c]
Monoclonal antibody CA1
  pmol of compound needed for 50% inhibition of binding in the competitive ELISA, CA1: 90 pmol
Monoclonal antibody CA2
  pmol of compound needed for 50% inhibition of binding in the competitive ELISA, CA2: 9 pmol
Monoclonal antibody CA3
  affinity / reactivity of antibody CA3: less reactive than the above three molecules
  pmol of compound needed for 50% inhibition of binding in the competitive ELISA, CA3: 5 pmol
Monoclonal antibody CA4
  pmol of compound needed for 50% inhibition of binding in the competitive ELISA, CA4: 112 pmol
[1]
  reactivity / cross-reactivity with the four antibodies: Cross-reactivity

## Nc1nc2c(ncn2[C@H]2C[C@H](O)[C@@H](CO)O2)c(=O)[nH]1 [Deoxyguanosine, reference compound]
Monoclonal antibody CA1
  pmol of compound needed for 50% inhibition of binding in the competitive ELISA, CA1: 2,564 pmol
Monoclonal antibody CA2
  pmol of compound needed for 50% inhibition of binding in the competitive ELISA, CA2: 698 pmol
Monoclonal antibody CA3
  pmol of compound needed for 50% inhibition of binding in the competitive ELISA, CA3: 14 pmol
Monoclonal antibody CA4
  pmol of compound needed for 50% inhibition of binding in the competitive ELISA, CA4: 5,370 pmol
[1]
  reactivity / cross-reactivity with the four antibodies: significant cross-reactivity

## Nc1ccn([C@H]2C[C@H](O)[C@@H](CO)O2)c(=O)n1 [Deoxycytosine, reference compound]
Monoclonal antibody CA1
  pmol of compound needed for 50% inhibition of binding in the competitive ELISA, CA1: > 110,000 pmol
Monoclonal antibody CA2
  pmol of compound needed for 50% inhibition of binding in the competitive ELISA, CA2: > 110,000 pmol
Monoclonal antibody CA3
  pmol of compound needed for 50% inhibition of binding in the competitive ELISA, CA3: > 110,000 pmol
Monoclonal antibody CA4
  pmol of compound needed for 50% inhibition of binding in the competitive ELISA, CA4: > 110,000 pmol

## CC1CC(O)n2c(nc3c(ncn3[C@H]3C[C@H](O)[C@@H](CO)O3)c2=O)N1 (mixture of isomers) [1a, 8R, 6R- and 8S, 6S-3-(2-deoxy-3-β-erythro-pentofuranosyl) 5,6,7,8-tetrahydro-8-hydroxy-6-methylpyrimido(1,2-a)purine-10(3H)one]
Monoclonal antibody CA1
  affinity of antibody CA1: lower affinity
  pmol of compound needed for 50% inhibition of binding in the competitive ELISA, CA1: 12.8 pmol
Monoclonal antibody CA2
  pmol of compound needed for 50% inhibition of binding in the competitive ELISA, CA2: 17 pmol
Monoclonal antibody CA3
  affinity / reactivity of antibody CA3: highest affinity of the four antibodies
  pmol of compound needed for 50% inhibition of binding in the competitive ELISA, CA3: 0.2 pmol
Monoclonal antibody CA4
  pmol of compound needed for 50% inhibition of binding in the competitive ELISA, CA4: 10 pmol
[1]
  reactivity / cross-reactivity with the four antibodies: strongest

## Nc1ncnc2c1ncn2[C@H]1C[C@H](O)[C@@H](CO)O1 [Deoxyadenosine, reference compound]
Monoclonal antibody CA1
  pmol of compound needed for 50% inhibition of binding in the competitive ELISA, CA1: > 80,000 pmol
Monoclonal antibody CA2
  pmol of compound needed for 50% inhibition of binding in the competitive ELISA, CA2: > 80,000 pmol
Monoclonal antibody CA3
  pmol of compound needed for 50% inhibition of binding in the competitive ELISA, CA3: > 80,000 pmol
Monoclonal antibody CA4
  pmol of compound needed for 50% inhibition of binding in the competitive ELISA, CA4: > 80,000 pmol

## COc1nc(N)nc2c1ncn2[C@H]1C[C@H](O)[C@@H](CO)O1 [reference compound]
Monoclonal antibody CA1
  pmol of compound needed for 50% inhibition of binding in the competitive ELISA, CA1: 56,790 pmol
Monoclonal antibody CA2
  pmol of compound needed for 50% inhibition of binding in the competitive ELISA, CA2: 51,270 pmol
Monoclonal antibody CA3
  pmol of compound needed for 50% inhibition of binding in the competitive ELISA, CA3: 235 pmol
Monoclonal antibody CA4
  pmol of compound needed for 50% inhibition of binding in the competitive ELISA, CA4: > 100,000 pmol
[1]
  reactivity / cross-reactivity with the four antibodies: unreactive

## CC1CC(O)n2c(nc3c(ncn3[C@H]3C[C@H](O)[C@@H](CO)O3)c2=O)N1 (mixture of isomers) [1b, 8R, 6R- and 8S, 6S-3-(2-deoxy-3-β-erythro-pentofuranosyl) 5,6,7,8-tetrahydro-8-hydroxy-6-methylpyrimido(1,2-a)purine-10(3H)one]
Monoclonal antibody CA1
  affinity of antibody CA1: high apparent affinity
  pmol of compound needed for 50% inhibition of binding in the competitive ELISA, CA1: 0.2 pmol
Monoclonal antibody CA2
  pmol of compound needed for 50% inhibition of binding in the competitive ELISA, CA2: 0.4 pmol
Monoclonal antibody CA3
  pmol of compound needed for 50% inhibition of binding in the competitive ELISA, CA3: 10 pmol
Monoclonal antibody CA4
  pmol of compound needed for 50% inhibition of binding in the competitive ELISA, CA4: 0.9 pmol
[1]
  reactivity / cross-reactivity with the four antibodies: strongest

## Cc1cn([C@H]2C[C@H](O)[C@@H](CO)O2)c(=O)[nH]c1=O [Thymidine, reference compound]
Monoclonal antibody CA1
  pmol of compound needed for 50% inhibition of binding in the competitive ELISA, CA1: > 100,000 pmol
Monoclonal antibody CA2
  pmol of compound needed for 50% inhibition of binding in the competitive ELISA, CA2: > 100,000 pmol
Monoclonal antibody CA3
  pmol of compound needed for 50% inhibition of binding in the competitive ELISA, CA3: > 100,000 pmol
Monoclonal antibody CA4
  pmol of compound needed for 50% inhibition of binding in the competitive ELISA, CA4: > 100,000 pmol

## O=c1c2ncn([C@H]3C[C@H](O)[C@@H](CO)O3)c2nc2n1C(O)CCN2 (stereo partly drawn) [1d]
Monoclonal antibody CA1
  pmol of compound needed for 50% inhibition of binding in the competitive ELISA, CA1: 0.8 pmol
Monoclonal antibody CA2
  specificity of antibody CA2: most specific
  pmol of compound needed for 50% inhibition of binding in the competitive ELISA, CA2: 0.2 pmol
Monoclonal antibody CA3
  pmol of compound needed for 50% inhibition of binding in the competitive ELISA, CA3: 0.9 pmol
Monoclonal antibody CA4
  pmol of compound needed for 50% inhibition of binding in the competitive ELISA, CA4: 7.9 pmol
[1]
  reactivity / cross-reactivity with the four antibodies: Cross-reactivity

## CC1CC(O)n2c(nc3[nH]cnc3c2=O)N1 (stereo not drawn) [1,base]
Monoclonal antibody CA1
  pmol of compound needed for 50% inhibition of binding in the competitive ELISA, CA1: 8.6 pmol
Monoclonal antibody CA2
  pmol of compound needed for 50% inhibition of binding in the competitive ELISA, CA2: 69 pmol
Monoclonal antibody CA3
  pmol of compound needed for 50% inhibition of binding in the competitive ELISA, CA3: 143 pmol
Monoclonal antibody CA4
  pmol of compound needed for 50% inhibition of binding in the competitive ELISA, CA4: 30 pmol
[1]
  reactivity / cross-reactivity with the four antibodies: Cross-reactivity
